# In patent US20220354957A1, “PEPTIDES TARGETING MACROPHAGES, AND CONJUGATES, COMPOSITIONS, AND USES THEREOF” (Twinpig Biolab, Inc., priority 2021, published 2022):
# Where no end group is shown, it is not given here.
# Legend:
# [1] = test system: THP-1-derived M2 macrophages; test: Affinity test of FITC-conjugated peptides by flow cytometry; format: cell-based, human
# Protocol: THP-1 monocytes were differentiated into macrophages by 24 h incubation with 100 nM phorbol 12-myristate 13-acetate (PMA, Sigma) followed by 24 h incubation in RPMI medium (Invitrogen). Macrophages were polarized in M1 macrophages (M1) by incubation with 20 ng/ml of IFN-γ (Prospec) and 100 ng/ml of LPS (Sigma). Macrophage M2 polarization(M2) was obtained by incubation with 20 ng/ml of interleukin (IL) 4 (Prospec) and 20 ng/ml of interleukin 13 (Prospec). M2-like tumor-associated macrophages were polarized by incubation with 20% conditioned medium of PC3 cells.
# THP-1 cells were differentiated into macrophages by a 24 h incubation with 100 nM PMA and polarized in M2 macrophages by incubation with 20 ng/ml of IL-4 and 20 ng/ml of IL-13 for 72 h. Polarized cells were treated with 50 nM TAMpep and fragments of TAMpep or Mpep and alanine library of Mpep conjugated with FITC for 1 h. To test change of macrophage population in melanoma tissue, the single cells were isolated from tumor tissue through a 40 μm nylon mesh strainer after dissociation by DNase I (1 U/mL) and collagenase D (1 mg/ml). Cells were detected on BD FACSCalibur and BD FACSCantoII instruments and analyzed by FlowJo software.
# [2] = test system: THP-1-derived M2 macrophages; test: Cytotoxicity assay (CCK-8 cell viability); format: cell-based, human; conditions: 0.05-20 μM, 24 h
# Protocol: THP-1 cells were differentiated into macrophages by 24 h incubation with 100 nM PMA and polarized in M2 macrophages by incubation with 20 ng/ml of IL-4 and 20 ng/ml of IL-13 for 72 h. Polarized cells were treated with increasing concentrations of TAMpep and fragments of TAMpep (0.05-20 μM) for 24 h. Cell viability was analyzed using the CCK-8 assay: CCK-8 reagent (Enzo Life Sciences) was added to each well; incubation was continued for 2 hours, and absorbance was measured at 450 nm with a microplate reader (Molecular Devices).
# [3] = test system: M2 macrophages; test: Affinity by immunofluorescence microscopy; format: cell-based, human
# [4] = test system: TRAMP-C2 cells; test: Mouse model of prostate cancer (subcutaneous TRAMP-C2); format: in vivo; conditions: TRAMP-C2 prostate cancer model
# From the text: BALB/c and C57BL/6 (B6) wild-type mice were purchased from DBL. For the subcutaneous tumor model of melanoma and prostate cancer, CT26 (3×10^5 cells/mouse), B16F10 (1×10^6 cells/mouse) and TRAMP-C2 cells (1×10^6 cells/mouse) were mixed with Matrigel matrix (Corning) and inoculated subcutaneously into the right flank of the mice, and 4T1 (1×10^5 cells/mouse) cells mixed with Matrigel matrix and inoculated into a 4th mammary fat pad of the mice. TAMpepK, and MpepK peptides (200 nmol/kg) were injected intraperitoneally every 3 days, beginning at day 7 after tumor inoculation, and tumor volume was measured by electronic caliper. All tumor tissues were harvested after the end of the study and tumor weight was measured by an electronic balance.
# Cells were harvested and lysed in PRO-PREP protein extraction solution (iNtRON, Bio Inc, Sungnam, Korea). Protein concentrations were measured with a Bradford Protein Assay Reagent kit (Bio-Rad, Richmond, CA, USA). Proteins were fractionated by 10% SDS-polyacrylamide gels electrophoresis (PAGE), and transferred onto polyvinylidene difluoride (PVDF) membranes. These were incubated with anti-arginase 1, anti-CD206, anti-caspase 3, anti-E-cadherin, anti-fibronectin, anti-PCNA, anti-TGF-β, anti-MMP9, and anti-β-actin Ab as primary antibodies. Goat anti-rabbit horseradish peroxidase-conjugated IgG or goat anti-mouse horseradish peroxidase-conjugated IgG (Abcam, Cambridge, Mass., USA) served as secondary antibodies. Protein bands were detected with a chemiluminescence reagent kit (SurModics).
compound,measurement,setting,value
A18: the eleventh S (serine) of Mpep is substituted with alanine (SEQ ID NO:21) (Ac-VLTTGLPALIAWIKRKRQQ),affinity of alanine-substituted Mpep peptides in M2 macrophages,"[1]; alanine-substituted library of Mpep, FITC-conjugated, FACS",increased affinity
"CC[C@H](C)[C@H](NC(=O)[C@H](CC(C)C)NC(=O)[C@H](C)NC(=O)[C@@H]1CCCN1C(=O)[C@H](CC(C)C)NC(=O)CNC(=O)[C@@H](NC(=O)[C@@H](NC(=O)[C@H](CC(C)C)NC(=O)[C@@H](NC(C)=O)C(C)C)[C@@H](C)O)[C@@H](C)O)C(=O)N[C@@H](CO)C(=O)N[C@@H](Cc1c[nH]c2ccccc12)C(=O)N[C@H](C(=O)N[C@@H](CCCCN)C(=O)N[C@@H](CCCNC(=N)N)C(=O)N[C@@H](CCCCN)C(=O)N[C@@H](CCCNC(=N)N)C(=O)N[C@@H](CCC(N)=O)C(=O)N[C@@H](CCC(N)=O)C(=O)O)[C@@H](C)CC [Mpep, Val-Leu-Thr-Thr-Gly-Leu-Pro-Ala-Leu-Ile-Ser-Trp-Ile-Lys-Arg-Lys-Arg-Gln-Gln]",cytotoxic effect in M2 macrophages (in words),[2],low cytotoxicity
"CC[C@H](C)[C@H](NC(=O)CN)C(=O)NCC(=O)N[C@@H](C)C(=O)N[C@H](C(=O)N[C@@H](CC(C)C)C(=O)N[C@@H](CCCCN)C(=O)N[C@H](C(=O)N[C@@H](CC(C)C)C(=O)N[C@H](C(=O)N[C@H](C(=O)NCC(=O)N[C@@H](CC(C)C)C(=O)N1CCC[C@H]1C(=O)N[C@@H](C)C(=O)N[C@@H](CC(C)C)C(=O)N[C@H](C(=O)N[C@@H](CO)C(=O)N[C@@H](Cc1c[nH]c2ccccc12)C(=O)N[C@H](C(=O)N[C@@H](CCCCN)C(=O)N[C@@H](CCCNC(=N)N)C(=O)N[C@@H](CCCCN)C(=O)N[C@@H](CCCNC(=N)N)C(=O)N[C@@H](CCC(N)=O)C(=O)N[C@@H](CCC(N)=O)C(N)=O)[C@@H](C)CC)[C@@H](C)CC)[C@@H](C)O)[C@@H](C)O)C(C)C)C(C)C [TAMpep, reference compound]",affinity in M2 macrophages compared to M0 and M1 macrophages,"[1]; FITC-conjugated peptides, THP-1-derived M0, M1, M2, FACS",significantly more high affinity
same,affinity in M2 macrophages by immunofluorescence microscopy,[3],high affinity
same,body weight of mice,[4],did not significantly change
"CC(=O)N[C@H](CCCCN)C(=O)N[C@H](CC(C)C)C(=O)N[C@H](C)C(=O)N[C@H](CCCCN)C(=O)N[C@H](CC(C)C)C(=O)N[C@H](C)C(=O)N[C@H](CCCCN)C(=O)N[C@H](CCCCN)C(=O)N[C@H](CC(C)C)C(=O)N[C@H](C)C(=O)N[C@H](CCCCN)C(=O)N[C@H](CC(C)C)C(=O)N[C@H](C)C(=O)N[C@H](CCCCN)C(=O)O [dKLA, d-Lys-d-Leu-d-Ala-d-Lys-d-Leu-d-Ala-d-Lys-d-Lys-d-Leu-d-Ala-d-Lys-d-Leu-d-Ala-d-Lys, reference compound]",body weight of mice,[4],did not significantly change
